# In US7033598B2, “Methods and apparatus for enhanced and controlled delivery of a biologically active agent into the central nervous system of a mammal” (Intrabrain International N.V., priority 1995, dated 2006):
# Details: transnasal iontophoresis +3.0 mA, 60 minutes; exsanguinated rabbits
# Protocol: The drug was administered by two nasal electrodes that were each deep inserted in the nasal passages. The receptor electrode was positioned at the back of the animal's head. The animal was prior to delivery exsanguinated so that drug transport via the systemic compartment to the brain cannot occur.
# The receptor electrode used in the experiments was saturated with a 0.9% NaCl solution. The iontophoresis apparatus used in these experiment was an Endomed 581 (Enraf Nonius, Delft, The Netherlands) iontophoresis device.
# Seven of the nine animals were treated “actively” by means of transnasal iontophoresis. A medium frequency, interrupted direct current with a strength of +3.0 mA was applied to the electrodes immediately after the exsanguination was completed. The remaining two animals functioned as controls of the method and no current was supplied to their electrodes. The experiment lasted 60 minutes.
smiles,measurement,value
"Cl.Nc1c2c(nc3ccccc13)CCCC2.O [Tacrine hydrochloride, 9-amino-1,2,3,4-tetrahydroacridine hydrochloride monohydrate]",migration distance under the applied electric field,5-6 cm
